The source made the active and inactive calls.
What was measured:
AML [1] = assay: Cytotoxicity against human AML cells at 20 to 30 uM after 24 hrs using Annexin-V and 7-AAD staining by flow cytometry; assay type: functional, cell-based
AML [2] = assay: Inhibition of NF-kappaB activity in human AML cells assessed as phosphorylation of NF-kappaB p65 subunit at Ser-536 at 15 uM by immunoblotting; assay type: cell-based
AML [3] = assay: Binding affinity to NF-kappaB p65 activity in human AML cells after 4 hrs streptavidin beads pull-down assay; assay type: cell-based
[4] = target: T1, Inhibitor of nuclear factor kappa-B kinase subunit beta (Homo sapiens) (UniProt O14920); assay: Binding affinity to IKK-beta activity in human AML cells after 4 hrs streptavidin beads pull-down assay; assay type: cell-based
T1 sequence (whole entry): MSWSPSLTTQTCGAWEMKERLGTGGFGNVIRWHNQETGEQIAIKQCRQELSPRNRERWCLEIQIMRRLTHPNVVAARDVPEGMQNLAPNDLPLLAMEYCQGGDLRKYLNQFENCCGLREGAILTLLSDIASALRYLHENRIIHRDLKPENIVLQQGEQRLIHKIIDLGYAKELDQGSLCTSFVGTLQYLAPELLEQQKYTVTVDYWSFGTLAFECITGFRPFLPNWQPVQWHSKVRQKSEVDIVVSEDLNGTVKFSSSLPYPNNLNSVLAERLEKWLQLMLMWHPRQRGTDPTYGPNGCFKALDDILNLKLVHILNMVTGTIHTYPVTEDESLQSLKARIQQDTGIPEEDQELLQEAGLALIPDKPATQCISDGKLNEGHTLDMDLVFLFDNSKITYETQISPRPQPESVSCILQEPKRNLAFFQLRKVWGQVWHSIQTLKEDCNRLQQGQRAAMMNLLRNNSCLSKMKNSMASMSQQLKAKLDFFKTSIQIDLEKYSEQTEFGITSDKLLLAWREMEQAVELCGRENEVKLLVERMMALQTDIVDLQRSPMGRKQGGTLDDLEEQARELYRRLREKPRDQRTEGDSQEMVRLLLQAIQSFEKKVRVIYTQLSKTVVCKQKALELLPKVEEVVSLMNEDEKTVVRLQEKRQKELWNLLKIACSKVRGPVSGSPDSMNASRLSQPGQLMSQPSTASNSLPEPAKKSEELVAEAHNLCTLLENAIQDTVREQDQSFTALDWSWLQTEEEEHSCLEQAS

AML [5] = assay: Cytotoxicity against human AML cells at 7.5 uM after 24 hrs using Annexin-V and 7-AAD staining by flow cytometry; assay type: functional, cell-based
AML [6] = assay: Inhibition of NF-kappaB activity in human AML cells assessed as phosphorylation of NF-kappaB p65 subunit at Ser-536 at 7.5 uM by immunoblotting; assay type: cell-based

Measured: Activity

C=C1C(=O)O[C@@H]2[C@H]3O[C@]3(C)CC/C=C(\COC(=O)CCCCCCCCCCCNC(=O)CCCC[C@@H]3SC[C@@H]4NC(=O)N[C@@H]43)CC[C@@H]12
active: AML [1] | AML [2] | AML [3] | [4]

C=C1C(=O)O[C@@H]2[C@H]3O[C@]3(C)CC/C=C(\CO)CC[C@@H]12
active: AML [5] | AML [6]
